Experimental data reported in PMC3694096, “Development of Novel In Vivo Chemical Probes to Address CNS Protein Kinase Involvement in Synaptic Dysfunction” (PLoS ONE, 2013).
pIC50: −log10 of the molar value. Converted amounts (≈) assume the structure as drawn. Read-outs that look alike come from different tables or passages of the source.

Key:
FGFR2 = molecular target: T1, FGFR2 (Homo sapiens, UniProt P21802); assay: Kinome profiler screen; assay type: biochemical; conditions: at 20,000 nM inhibitor; kinase activity remaining
T1 construct: purchased Millipore KinaseProfiler
T1 sequence (P21802 22-821): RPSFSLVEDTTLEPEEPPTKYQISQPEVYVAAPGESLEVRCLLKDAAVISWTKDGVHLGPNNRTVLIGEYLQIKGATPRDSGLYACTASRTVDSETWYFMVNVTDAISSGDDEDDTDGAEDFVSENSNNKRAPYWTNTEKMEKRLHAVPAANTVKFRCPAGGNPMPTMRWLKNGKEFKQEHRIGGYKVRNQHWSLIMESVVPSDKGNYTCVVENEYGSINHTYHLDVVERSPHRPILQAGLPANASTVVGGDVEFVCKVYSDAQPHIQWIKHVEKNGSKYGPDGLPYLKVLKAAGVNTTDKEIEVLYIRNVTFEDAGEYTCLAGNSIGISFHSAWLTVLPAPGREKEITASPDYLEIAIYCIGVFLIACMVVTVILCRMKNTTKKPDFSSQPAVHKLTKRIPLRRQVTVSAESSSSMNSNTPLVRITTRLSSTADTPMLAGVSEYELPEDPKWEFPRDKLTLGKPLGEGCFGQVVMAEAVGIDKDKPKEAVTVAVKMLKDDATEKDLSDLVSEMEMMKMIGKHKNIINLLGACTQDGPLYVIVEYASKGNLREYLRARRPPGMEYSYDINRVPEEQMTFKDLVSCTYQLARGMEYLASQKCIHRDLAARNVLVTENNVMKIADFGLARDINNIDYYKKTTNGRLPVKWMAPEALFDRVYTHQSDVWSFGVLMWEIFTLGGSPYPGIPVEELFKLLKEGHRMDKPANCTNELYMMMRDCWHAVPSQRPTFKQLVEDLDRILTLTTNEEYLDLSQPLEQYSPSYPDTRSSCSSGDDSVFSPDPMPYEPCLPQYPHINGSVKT

Aqueous solubility = assay type: physicochemical; conditions: for solubility at 24 h: water, 37 °C, thermodynamic from solid
Protocol: (§1) Aqueous solubility (logS) and chemical stability were determined as previously described. Briefly, solutions for aqueous solubility (log S) determination were made by gravimetric methods using a Sartorius AG (Germany) BP 211 D analytical balance. Dry borosilicate capillary tubes (Büchi, Switzerland) were weighed and various amounts of compound (ranging from 1.2–1.5 mg) or the hydrochloride hydrate form (ranging from 10–20 mg) were added to the tared tubes, then water added to create solutions ranging in concentrations from […]. Tubes containing the samples were mixed to ensure wetting and incubated at 37°C for 24 h. Aliquots were collected from each tube, centrifuged at 12,000 g-min, and analyzed by HPLC. Concentrations were calculated using area under the peak (260 nm) at the appropriate retention time relative to a standard curve obtained from serial dilutions of each purified compound. […]. The co-solvent was methanol, experimental pH range was 1.7–10.0, temperature was 22±2°C, ionic strength was 0.15 M KCl. Five titrations were used to calculate the pKa using the Yasuda-Shedlovsky technique. […].

Tie2(Y897S) = molecular target: T2, Tie2(Y897S) (Homo sapiens, UniProt Q02763, Y897S); assay: Kinome profiler screen; assay type: biochemical; conditions: at 20,000 nM inhibitor; kinase activity remaining
T2 construct: purchased Millipore KinaseProfiler

reference memory = assay: 2-day radial arm water maze (RAWM), Aβ42-infused mice; assay type: in vivo, C57BL/6J mice; conditions: 5 mg/Kg i.p.
EphA5 = molecular target: T3, EphA5 (Homo sapiens, UniProt P54756); assay: Kinome profiler screen; assay type: biochemical; conditions: at 20,000 nM inhibitor; kinase activity remaining
T3 construct: purchased Millipore KinaseProfiler

DAPK1 = molecular target: T4, DAPK1 (Homo sapiens, UniProt P53355); assay: Kinome profiler screen; assay type: biochemical; conditions: at 20,000 nM inhibitor; kinase activity remaining
T4 construct: purchased Millipore KinaseProfiler

Plk3 = molecular target: T5, Plk3 (Homo sapiens, UniProt Q9H4B4); assay: Kinome profiler screen; assay type: biochemical; conditions: at 20,000 nM inhibitor; kinase activity remaining
T5 construct: purchased Millipore KinaseProfiler

eEF-2K = molecular target: T6, eEF-2K (Homo sapiens, UniProt O00418); assay: Kinome profiler screen; assay type: biochemical; conditions: at 20,000 nM inhibitor; kinase activity remaining
T6 construct: purchased Millipore KinaseProfiler

EGFR = molecular target: T7, EGFR (Homo sapiens, UniProt P00533); assay: Kinome profiler screen; assay type: biochemical; conditions: at 20,000 nM inhibitor; kinase activity remaining
T7 construct: purchased Millipore KinaseProfiler

CDK6/cyclinD3 = molecular target: T8, CDK6/cyclinD3 (Homo sapiens, UniProt Q00534); assay: Kinome profiler screen; assay type: biochemical; conditions: at 20,000 nM inhibitor; kinase activity remaining
T8 construct: purchased Millipore KinaseProfiler

EGFR(L861Q) = molecular target: T9, EGFR(L861Q) (Homo sapiens, UniProt P00533, L861Q); assay: Kinome profiler screen; assay type: biochemical; conditions: at 20,000 nM inhibitor; kinase activity remaining
T9 construct: purchased Millipore KinaseProfiler

Chemical stability = assay type: physicochemical
Protocol: as §1

EphB3 = molecular target: T10, EphB3 (Homo sapiens, UniProt P54753); assay: Kinome profiler screen; assay type: biochemical; conditions: at 20,000 nM inhibitor; kinase activity remaining
T10 construct: purchased Millipore KinaseProfiler

SIK = molecular target: T11, SIK (Homo sapiens, UniProt P57059); assay: Kinome profiler screen; assay type: biochemical; conditions: at 20,000 nM inhibitor; kinase activity remaining
T11 construct: purchased Millipore KinaseProfiler
T11 sequence (P57059 whole entry): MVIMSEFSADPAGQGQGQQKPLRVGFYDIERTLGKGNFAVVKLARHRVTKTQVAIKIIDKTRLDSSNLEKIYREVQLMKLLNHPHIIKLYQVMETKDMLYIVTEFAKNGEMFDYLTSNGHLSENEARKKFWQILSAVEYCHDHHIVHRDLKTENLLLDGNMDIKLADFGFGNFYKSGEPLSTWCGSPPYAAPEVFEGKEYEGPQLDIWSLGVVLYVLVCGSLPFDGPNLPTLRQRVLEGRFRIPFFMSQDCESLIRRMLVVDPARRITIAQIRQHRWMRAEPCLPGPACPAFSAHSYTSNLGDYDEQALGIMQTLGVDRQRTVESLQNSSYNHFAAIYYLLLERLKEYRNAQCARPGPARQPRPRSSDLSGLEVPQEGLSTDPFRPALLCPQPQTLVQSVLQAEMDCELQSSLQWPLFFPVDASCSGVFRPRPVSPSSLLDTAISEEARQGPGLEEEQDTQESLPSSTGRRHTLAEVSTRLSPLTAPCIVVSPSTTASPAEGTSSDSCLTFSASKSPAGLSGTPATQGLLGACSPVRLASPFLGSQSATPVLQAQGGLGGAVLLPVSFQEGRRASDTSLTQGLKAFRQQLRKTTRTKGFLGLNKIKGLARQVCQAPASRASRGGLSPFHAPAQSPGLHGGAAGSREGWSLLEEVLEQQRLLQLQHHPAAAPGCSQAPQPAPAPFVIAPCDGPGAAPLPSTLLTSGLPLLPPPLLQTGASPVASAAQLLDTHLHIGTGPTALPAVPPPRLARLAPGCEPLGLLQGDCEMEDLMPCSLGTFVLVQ

MAPK2 = molecular target: T12, MAPK2 (Homo sapiens, UniProt P28482); assay: Kinome profiler screen; assay type: biochemical; conditions: at 20,000 nM inhibitor; kinase activity remaining
T12 construct: purchased Millipore KinaseProfiler
T12 sequence (P28482 whole entry): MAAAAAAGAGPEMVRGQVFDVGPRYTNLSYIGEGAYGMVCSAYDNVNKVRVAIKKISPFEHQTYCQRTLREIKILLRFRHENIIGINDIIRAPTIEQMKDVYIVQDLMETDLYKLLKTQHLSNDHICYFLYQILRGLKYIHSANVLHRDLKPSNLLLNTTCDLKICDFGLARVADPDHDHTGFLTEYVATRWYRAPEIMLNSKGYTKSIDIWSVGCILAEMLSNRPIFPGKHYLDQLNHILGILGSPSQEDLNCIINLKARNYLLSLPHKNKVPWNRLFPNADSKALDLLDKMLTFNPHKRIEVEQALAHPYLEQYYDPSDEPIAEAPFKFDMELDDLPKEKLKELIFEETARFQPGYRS

MLK1 = molecular target: T13, MLK1 (Homo sapiens, UniProt P80192); assay: Kinome profiler screen; assay type: biochemical; conditions: at 20,000 nM inhibitor; kinase activity remaining
T13 construct: purchased Millipore KinaseProfiler

SGK = molecular target: T14, SGK (Homo sapiens, UniProt O00141); assay: Kinome profiler screen; assay type: biochemical; conditions: at 20,000 nM inhibitor; kinase activity remaining
T14 construct: purchased Millipore KinaseProfiler

STK33 = molecular target: T15, STK33 (Homo sapiens, UniProt Q9BYT3); assay: Kinome profiler screen; assay type: biochemical; conditions: at 20,000 nM inhibitor; kinase activity remaining
T15 construct: purchased Millipore KinaseProfiler
T15 sequence (Q9BYT3 whole entry): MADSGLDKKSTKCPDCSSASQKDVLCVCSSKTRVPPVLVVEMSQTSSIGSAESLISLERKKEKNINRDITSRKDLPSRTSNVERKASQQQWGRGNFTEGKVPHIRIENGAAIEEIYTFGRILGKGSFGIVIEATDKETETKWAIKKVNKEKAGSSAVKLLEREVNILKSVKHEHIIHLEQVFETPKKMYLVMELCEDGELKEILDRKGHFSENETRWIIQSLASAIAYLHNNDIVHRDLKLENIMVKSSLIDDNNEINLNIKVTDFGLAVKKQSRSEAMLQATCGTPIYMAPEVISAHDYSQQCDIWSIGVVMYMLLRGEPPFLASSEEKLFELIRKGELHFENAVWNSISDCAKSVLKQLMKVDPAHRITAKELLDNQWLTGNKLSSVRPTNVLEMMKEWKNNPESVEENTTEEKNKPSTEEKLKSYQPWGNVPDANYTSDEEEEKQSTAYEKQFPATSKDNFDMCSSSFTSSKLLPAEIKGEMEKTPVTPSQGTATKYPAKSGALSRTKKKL

ROCK-I = molecular target: T16, ROCK-I (Homo sapiens, UniProt Q13464); assay: Kinome profiler screen; assay type: biochemical; conditions: at 20,000 nM inhibitor; kinase activity remaining
T16 construct: purchased Millipore KinaseProfiler

BrSK2 = molecular target: T17, BrSK2 (Homo sapiens, UniProt Q8IWQ3); assay: Kinome profiler screen; assay type: biochemical; conditions: at 20,000 nM inhibitor; kinase activity remaining
T17 construct: purchased Millipore KinaseProfiler
T17 sequence (Q8IWQ3 whole entry): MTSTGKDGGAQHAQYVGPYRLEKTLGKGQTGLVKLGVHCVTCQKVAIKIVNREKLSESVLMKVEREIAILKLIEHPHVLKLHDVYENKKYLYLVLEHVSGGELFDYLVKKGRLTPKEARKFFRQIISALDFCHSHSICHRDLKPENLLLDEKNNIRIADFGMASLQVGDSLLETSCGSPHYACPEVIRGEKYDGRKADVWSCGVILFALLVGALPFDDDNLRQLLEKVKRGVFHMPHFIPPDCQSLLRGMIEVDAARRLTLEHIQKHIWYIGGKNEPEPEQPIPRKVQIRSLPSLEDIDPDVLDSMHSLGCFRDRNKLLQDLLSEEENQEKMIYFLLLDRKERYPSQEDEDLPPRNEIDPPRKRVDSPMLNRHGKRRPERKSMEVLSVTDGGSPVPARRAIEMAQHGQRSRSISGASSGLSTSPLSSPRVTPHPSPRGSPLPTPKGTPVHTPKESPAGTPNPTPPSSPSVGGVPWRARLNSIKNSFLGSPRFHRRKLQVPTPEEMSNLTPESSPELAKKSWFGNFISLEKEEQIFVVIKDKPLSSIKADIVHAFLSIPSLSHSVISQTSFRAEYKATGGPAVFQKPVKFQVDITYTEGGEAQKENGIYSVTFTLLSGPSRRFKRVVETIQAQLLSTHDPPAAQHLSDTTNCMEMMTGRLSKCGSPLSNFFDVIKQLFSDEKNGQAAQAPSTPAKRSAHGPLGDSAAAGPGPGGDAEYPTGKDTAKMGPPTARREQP

c-RAF = molecular target: T18, c-RAF (Homo sapiens, UniProt P04049); assay: Kinome profiler screen; assay type: biochemical; conditions: for activity at 20 µM: at 20,000 nM inhibitor, kinase activity remaining
T18 construct: purchased Millipore
T18 sequence (P04049 whole entry): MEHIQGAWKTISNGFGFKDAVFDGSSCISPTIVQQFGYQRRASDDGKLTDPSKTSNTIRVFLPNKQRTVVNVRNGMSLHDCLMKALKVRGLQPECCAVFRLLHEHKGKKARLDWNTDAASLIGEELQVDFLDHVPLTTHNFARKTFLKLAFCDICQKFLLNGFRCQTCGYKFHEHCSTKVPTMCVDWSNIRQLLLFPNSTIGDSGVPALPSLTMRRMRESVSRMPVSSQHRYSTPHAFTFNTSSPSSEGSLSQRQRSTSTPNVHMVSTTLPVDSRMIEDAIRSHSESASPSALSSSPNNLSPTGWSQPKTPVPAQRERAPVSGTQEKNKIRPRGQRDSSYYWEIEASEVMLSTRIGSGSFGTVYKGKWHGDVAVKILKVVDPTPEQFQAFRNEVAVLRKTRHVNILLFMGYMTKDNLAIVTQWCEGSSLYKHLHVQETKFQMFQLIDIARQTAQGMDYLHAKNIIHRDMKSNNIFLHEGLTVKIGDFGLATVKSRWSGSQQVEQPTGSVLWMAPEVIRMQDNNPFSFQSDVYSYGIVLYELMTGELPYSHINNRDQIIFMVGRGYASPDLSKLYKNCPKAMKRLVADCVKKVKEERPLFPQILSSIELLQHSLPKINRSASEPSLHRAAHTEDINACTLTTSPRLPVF

Itk = molecular target: T19, Itk (Homo sapiens, UniProt Q08881); assay: Kinome profiler screen; assay type: biochemical; conditions: at 20,000 nM inhibitor; kinase activity remaining
T19 construct: purchased Millipore KinaseProfiler
T19 sequence (Q08881 whole entry): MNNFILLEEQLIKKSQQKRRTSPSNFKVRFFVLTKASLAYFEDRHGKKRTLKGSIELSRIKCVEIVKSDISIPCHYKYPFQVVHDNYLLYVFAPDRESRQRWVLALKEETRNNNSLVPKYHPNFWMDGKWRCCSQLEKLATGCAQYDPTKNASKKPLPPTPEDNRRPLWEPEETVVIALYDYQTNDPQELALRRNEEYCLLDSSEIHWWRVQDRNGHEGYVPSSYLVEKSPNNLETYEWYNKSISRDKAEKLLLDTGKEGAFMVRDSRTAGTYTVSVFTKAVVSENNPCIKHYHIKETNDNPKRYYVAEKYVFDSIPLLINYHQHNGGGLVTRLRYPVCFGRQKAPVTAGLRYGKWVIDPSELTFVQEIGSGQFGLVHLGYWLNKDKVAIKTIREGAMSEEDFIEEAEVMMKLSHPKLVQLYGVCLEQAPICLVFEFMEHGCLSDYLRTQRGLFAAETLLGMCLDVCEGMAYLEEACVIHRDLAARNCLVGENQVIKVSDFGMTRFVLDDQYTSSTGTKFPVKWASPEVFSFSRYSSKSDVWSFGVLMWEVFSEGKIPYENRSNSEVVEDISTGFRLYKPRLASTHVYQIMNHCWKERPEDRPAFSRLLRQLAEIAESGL

CK1γ1 = molecular target: T20, CK1γ1 (Homo sapiens, UniProt Q9HCP0); assay: Kinome profiler screen; assay type: biochemical; conditions: at 20,000 nM inhibitor; kinase activity remaining
T20 construct: purchased Millipore KinaseProfiler

mTOR/FKBP12 = molecular target: T21, mTOR/FKBP12 (Homo sapiens, UniProt P42345); assay: Kinome profiler screen; assay type: biochemical; conditions: at 20,000 nM inhibitor; kinase activity remaining
T21 construct: purchased Millipore KinaseProfiler

Src(1-530) = molecular target: T22, Src(1-530) (Homo sapiens, UniProt P12931); assay: Kinome profiler screen; assay type: biochemical; conditions: at 20,000 nM inhibitor; kinase activity remaining
T22 construct: purchased Millipore KinaseProfiler
T22 sequence (P12931 1-530 limits assumed): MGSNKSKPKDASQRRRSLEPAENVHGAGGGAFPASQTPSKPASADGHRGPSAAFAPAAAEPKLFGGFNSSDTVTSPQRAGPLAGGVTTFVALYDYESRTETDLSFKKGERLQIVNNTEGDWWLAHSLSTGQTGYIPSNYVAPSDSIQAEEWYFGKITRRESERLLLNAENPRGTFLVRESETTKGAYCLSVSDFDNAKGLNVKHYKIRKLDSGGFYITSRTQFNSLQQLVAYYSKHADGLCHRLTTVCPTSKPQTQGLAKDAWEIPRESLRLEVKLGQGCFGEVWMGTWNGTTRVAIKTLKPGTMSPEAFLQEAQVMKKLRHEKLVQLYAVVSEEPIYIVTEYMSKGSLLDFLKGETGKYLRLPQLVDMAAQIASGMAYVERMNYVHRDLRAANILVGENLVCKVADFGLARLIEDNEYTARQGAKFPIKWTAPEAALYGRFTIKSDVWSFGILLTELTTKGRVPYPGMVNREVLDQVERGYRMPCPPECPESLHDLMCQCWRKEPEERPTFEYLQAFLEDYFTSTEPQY

PDK1 = molecular target: T23, PDK1 (Homo sapiens, UniProt O15530); assay: Kinome profiler screen; assay type: biochemical; conditions: at 20,000 nM inhibitor; kinase activity remaining
T23 construct: purchased Millipore KinaseProfiler

Row | Compound | activity at 20 µM (FGFR2) | activity at 20 µM (Tie2(Y897S)) | reference memory deficit, RAWM (reference memory) | activity at 20 µM (EphA5) | activity at 20 µM (DAPK1) | activity at 20 µM (Plk3) | activity at 20 µM (eEF-2K) | activity at 20 µM (EGFR) | activity at 20 µM (CDK6/cyclinD3) | activity at 20 µM (EGFR(L861Q)) | activity at 20 µM (EphB3) | activity at 20 µM (SIK) | activity at 20 µM (MAPK2) | activity at 20 µM (MLK1) | activity at 20 µM (SGK) | activity at 20 µM (STK33) | activity at 20 µM (ROCK-I) | activity at 20 µM (BrSK2) | activity at 20 µM (c-RAF) | activity at 20 µM (Itk) | other results
1 | CN(C)c1cc(-c2ccncc2)c(-c2cccc3ccccc23)nn1 [MW181, N,N-dimethyl-6-(naphthalen-1-yl)-5-(pyridin-4-yl)pyridazin-3-amine] | 98% | 95% | ameliorated the reference memory deficit | 101% | 99% | 92% | 98% | 103% | 103% | 56% | 102% | 92% | 97% | 95% | 88% | 99% | 97% | 105% | 70% | 91% | Aqueous Solubility (37ºC), HCl hydrate (Aqueous solubility; hydrochloride hydrate form, 24 h): ~800 mM; solubility at 24 h (Aqueous solubility; compound (not the salt), 24 h, read-out: Aqueous Solubility (37ºC)): 0.205 mM; solubility at 24 h (Aqueous solubility; hydrochloride hydrate form, 24 h, read-out: Aqueous Solubility (37ºC), HCl hydrate): 840 mM (≈ 274 mg/mL); Chemical Stability (37ºC; 24 hrs) (Chemical stability; neutral, base (pH 13), acid (pH 2)): stable in neutral, base (pH 13), acid (pH 2); activity at 20 µM (CK1γ1): 101%; activity at 20 µM (mTOR/FKBP12): 96%; activity at 20 µM (Src(1-530)): 98%; activity at 20 µM (PDK1): 105%
2 | CN(C)c1cc(-c2ccncc2)c(-c2ccc3ccccc3c2)nn1 [MW108, N, N-dimethyl-6-(naphthalen-2-yl)-5-(pyridin-4-yl)pyridazin-3-amine] | 101% | 95% | ameliorated the reference memory deficit | 100% | 92% | 103% | 108% | 79% | 85% | 49% | 96% | 91% | 113% | 98% | 88% | 106% | 89% | 88% | 27% | 90% | solubility at 24 h (Aqueous solubility; Aqueous Solubility (37 °C)): 0.058 mM (≈ 0.0189 mg/mL); solubility at 24 h (Aqueous solubility; Aqueous Solubility (37 °C), HCl hydrate): 370 mM (≈ 121 mg/mL); Aqueous Solubility (37ºC), HCl hydrate (Aqueous solubility; 24 h): ~400 mM; Chemical Stability (37ºC; 24 hrs) (Chemical stability; 24 h, 0.0015 M): stable in neutral, base (pH 13), acid (pH 2); pIC50 (c-RAF): 5.04; activity at 20 µM (CK1γ1): 101%; activity at 20 µM (mTOR/FKBP12): 100%; activity at 20 µM (Src(1-530)): 101%; activity at 20 µM (PDK1): 104%
